Where two headings read alike, the source gives them in different places. Values belong to the molecule of their own block, whether it stands above or below them.
Assays:
[1] = Hygroscopicity: open weighing bottles in a constant temperature and humidity incubator, moisture absorption rate; format: physicochemical; details: for hygroscopicity (in words): compared with the amorphous compound of structural formula (I); for Moisture absorption rates after 1 month / Moisture absorption rates after 2 months / Moisture absorption rates after 2 weeks: 25° C., 75% humidity
Description: The crystal form A products prepared in example 1, example 2 and example 3 were taken and placed in weighing bottles for precision weighing. The caps of the bottles were opened, the bottles were put on an upper part of a drier and placed in a constant temperature and humidity incubator with 25° C. and 75% humidity, three parts were subjected to parallel operation, and then taken and weighed in two weeks, one month and two months respectively, and the compound amorphous powder of structural formula (I) was used as comparative example 1. Moisture absorption rate=(weight after moisture absorption - weight before moisture absorption)/weight before moisture absorption×100%.

[2] = Absorption experiment (pharmacokinetics and bioavailability) in rats; format: in vivo; details: Sprague Dawley, plasma, rat; for bioavailability: oral, 150 mpk
Description: Trial rats were Sprague Dawley rats, 7 rats in total, 1 rat was used as blank control, and blank plasma was taken to be used. 3 rats were administrated via tail intravenous injection (30 mpk), and 3 rats were orally and intragastrically administrated (150 mpk). According to the set time schedule, blood was collected from orbital vein to put in a blood collection vessel containing heparin sodium, centrifuged for 10min at 4° C. and 3500rpm, the supernatant of plasma was taken and put into EP tube, and the content of the compound of structural formula (I) in blood was detected. Bioavailability was calculated according to the following formula: bioavailability F %=(AUCpo/AUCIV)×(dose IV/dose po)×100%; Time schedule was set, as shown in Table 2. AUCpo is an area under the drug concentration-time curve under administrating oral drug, AUCIV is an area under the drug concentration-time curve under intravenous injecting drug, dose IV is the dose of the injected drug, the dose po is the dose of the oral drug, Tmax (h) is the time to reach the blood peak, T1/2 (h) is the half-life of blood concentration, and Cmax (ng/mL) is the drug peak concentration of the drug-time curve.

[3] = test system: IPF model (bleomycin); test: Animal drug effect in the bleomycin-induced IPF model, intragastric administration; format: in vivo, C57BL/6 mice; details: for overall effect on idiopathic pulmonary fibrosis: bleomycin mouse model, vs Pirfenidone and Nintedanib
Description: Trial mice were C57BL/6 mice, 35 mice in total, 7 mice in each group, including a saline group, a bleomycin group, a Nintedanib group (100 mpk), a Pirfenidone group (200 mpk) and a group (100 mpk) administrating the crystal form A of the compound of structural formula (I). On day 0, bleomycin (2U/kg) was injected using a trachea to establish an IPF model, 0-7 days were inflammation periods of mice, and 7-14 days were fibrosis lasting progressive periods of mice. Administration was conducted on the day 7, materials were taken on the day 14, the lung functions of mice were measured after mice were narcotized, then the left lungs were taken to make pathological sections, and the right lungs were used to measure hydroxyproline.

[4] = 30 mg/kg, intravenous injection (30 mpk)
[5] = 150 mg/kg, oral administration (150 mpk)

Structure (SMILES): CN(C)C[C@@H]1C(=O)O[C@@H]2C[C@@]3(C)CC[C@@H](O)[C@]4(CO4)[C@@H]3C[C@H]12.O=C(O)CCC(=O)O
- hygroscopicity (in words) [1]: obviously reduced
- hygroscopicity (in words) ([1]; listed as crystal form A of the compound (I)): basically non-hygroscopic
- AUC [2, 4]: 40.6 µg·h/mL
- Cmax [2, 4]: 21300 ng/mL
- Tmax [2, 4]: 0.11 h
- half-life [2, 4]: 1.35 h
- AUC [2, 5]: 174 µg·h/mL
- Cmax [2, 5]: 56300 ng/mL
- Tmax [2, 5]: 0.67 h
- half-life [2, 5]: 1.91 h
- bioavailability ([2]; po 150 mpk vs iv 30 mpk, read-out: bioavailability): 85.8%
- pathological sections (area of pulmonary fibrosis focus, alveolar structure) ([3]; 100 mpk, administration from day 7, left lung taken on day 14): can obviously reduce the area of pulmonary fibrosis focus and normalize the alveolar structure
- forced vital capacity (FVC) ([3]; 100 mpk, day 14): can significantly improve the FVC of mice
- pulmonary fibrosis area (fibrotic percentage) ([3]; 100 mpk, day 14, vs Nintedanib (100 mpk) and Pirfenidone (200 mpk)): superior to the positive drugs
- expression of hydroxyproline (content of collagen in the lungs) ([3]; 100 mpk, right lung, day 14): can significantly reduce the content of collagen in the lungs
- overall effect on idiopathic pulmonary fibrosis [3]: can significantly alleviate idiopathic pulmonary fibrosis

Structure (SMILES): CN(C)C[C@@H]1C(=O)O[C@@H]2C[C@@]3(C)CC[C@@H](O)[C@]4(CO4)[C@@H]3C[C@H]12.O=C(O)CCC(=O)O [Example 1]
- Moisture absorption rates after 1 month [1]: 2.7%
- Moisture absorption rates after 2 months [1]: 3.2%
- Moisture absorption rates after 2 weeks [1]: 1.4%
- bioavailability ([2]; crystal form A prepared by the methods in example 1 and example 3, read-out: bioavailabilities): > 85.5%
- overall effect on idiopathic pulmonary fibrosis [3]: can significantly alleviate idiopathic pulmonary fibrosis

Structure (SMILES): CN(C)C[C@@H]1C(=O)O[C@@H]2C[C@@]3(C)CC[C@@H](O)[C@]4(CO4)[C@@H]3C[C@H]12.O=C(O)CCC(=O)O [Example 2]
- Moisture absorption rates after 1 month [1]: 3.8%
- Moisture absorption rates after 2 months [1]: 3.1%
- Moisture absorption rates after 2 weeks [1]: 1.9%

Second part, led by results:

- Moisture absorption rates after 1 month [1]: 2.2%
- Moisture absorption rates after 2 months [1]: 2.8%
- Moisture absorption rates after 2 weeks [1]: 1.6%
Structure (SMILES): CN(C)C[C@@H]1C(=O)O[C@@H]2C[C@@]3(C)CC[C@@H](O)[C@]4(CO4)[C@@H]3C[C@H]12.O=C(O)CCC(=O)O [Example 3]
- overall effect on idiopathic pulmonary fibrosis [3]: can significantly alleviate idiopathic pulmonary fibrosis

- Moisture absorption rates after 1 month [1]: 12.7%
- Moisture absorption rates after 2 months [1]: 22.6%
- Moisture absorption rates after 2 weeks [1]: 8.1%
Structure (SMILES): CN(C)C[C@@H]1C(=O)O[C@@H]2C[C@@]3(C)CC[C@@H](O)[C@]4(CO4)[C@@H]3C[C@H]12.O=C(O)CCC(=O)O [compound 1]

Reference: US20210070723A1, “CRYSTAL FORM OF SESQUITERPENE DERIVATIVE, PREPARATION METHOD THEREFOR AND USE THEREOF” (Nankai University, priority 2017, published 2021)
